Earlier results in patent US10927398B2, “Compositions for CYP450 phenotyping using saliva samples” (Concordia University, Inc., priority 2015, dated 2021).
Read-outs that look alike come from different tables or passages of the source.

Assays:
[1] = tested on: plasma protein; details: cited from earlier work
[2] = cited from earlier work
[3] = Table of Exemplary Drugs, CYP2C9
[4] = Table of Exemplary Drugs, CYP3A4
[5] = Table of Exemplary Drugs, CYP2C19
[6] = Table of Exemplary Drugs, CYP2D6

Compound	PLASMA PROTEIN BINDING [1, 4]	HALF-LIFE [2, 4] [h]	further results
Cc1nnc2n1-c1ccc(Cl)cc1C(c1ccccc1Cl)=NC2 [Triazolam (Halcion), Triazolam]	–	–	PLASMA PROTEIN BINDING ([1]; plasma): 89-94% ^; HALF-LIFE ([2]; in vivo): 2.3 h
COc1ccc(Cl)cc1C(=O)NCCc1ccc(S(=O)(=O)NC(=O)NC2CCCCC2)cc1 [Glibenclamide]	–	–	PLASMA PROTEIN BINDING [1, 3]: 99%
C=C(c1ccc(C(=O)O)cc1)c1cc2c(cc1C)C(C)(C)CCC2(C)C [Bexarotene (Targretin), Bexarotene]	99%	7	–
C[C@]12C=CC(=O)C=C1CC[C@@H]1[C@@H]2[C@@H](O)C[C@@]2(C)[C@H]1CC[C@]2(O)C(=O)CO [Prednisolone]	70-90% ^	2 to 4	–
CN1CC(=O)N2[C@H](c3ccc4c(c3)OCO4)c3[nH]c4ccccc4c3C[C@@H]2C1=O [Tadalafil (Cialis), Tadalafil]	94%	15 to 35	–
Cc1c(O)cccc1C(=O)N[C@@H](CSc1ccccc1)[C@H](O)CN1C[C@H]2CCCC[C@H]2C[C@H]1C(=O)NC(C)(C)C [Nelfinavir]	–	–	PLASMA PROTEIN BINDING [1, 5]: 98%; HALF-LIFE [2, 5]: 3.5 to 5 h
CCCCN(CCCC)CCC(O)c1cc2c(Cl)cc(Cl)cc2c2cc(C(F)(F)F)ccc12 (centres unmarked) [Halofantrine (Halfan), Halofantrine]	60-70% ^	140 to 240	–
C1CCC(C(CC2CCCCN2)C2CCCCC2)CC1 (centres unmarked) [Perhexiline]	–	–	HALF-LIFE [2, 6]: 12 to 18 h
CSc1ccc2c(c1)N(CCC1CCCCN1C)c1ccccc1S2 (centres unmarked) [Thioridazine]	–	–	HALF-LIFE [2, 6]: 21 to 24 h
CN1C2CCCC1CC(NC(=O)c1nn(C)c3ccccc13)C2 (centres unmarked) [Granisetron (Kytril), Granisetron]	65%	3 to 24	–
CCN(CC)CCNC(=O)c1c(C)[nH]c(/C=C2\C(=O)Nc3ccc(F)cc32)c1C [Sunitinib (Sutent), Sunitinib]	95%	40 to 60	–
CCC(C)n1ncn(-c2ccc(N3CCN(c4ccc(OCC5COC(Cn6cncn6)(c6ccc(Cl)cc6Cl)O5)cc4)CC3)cc2)c1=O (centres unmarked) [Itraconazole (Sporanox), Itraconazole]	–	35 to 64	–
CC(C)CN(C[C@@H](OP(=O)(O)O)[C@H](Cc1ccccc1)NC(=O)O[C@H]1CCOC1)S(=O)(=O)c1ccc(N)cc1 [Fosamprenavir (Lexiva), Fosamprenavir]	90%	7.7	–
CC1OC2(CS1)CN1CCC2CC1 (centres unmarked) [Cevimeline (Evoxac), Cevimeline]	<20%	4 to 6	–
CC[C@H](C)C(=O)O[C@H]1C[C@@H](C)C=C2C=C[C@H](C)[C@H](CC[C@@H]3C[C@@H](O)CC(=O)O3)[C@H]21 [Lovastatin (Mevacor), Lovastatin]	>95%	2 to 5	–
[H]/N=C(\N/C(=N/[H])Nc1ccc(Cl)cc1)NC(C)C [Proguanil]	–	–	PLASMA PROTEIN BINDING [1, 5]: 75%; HALF-LIFE [2, 5]: 12 to 18 h
CC(NC(C)(C)C)C(=O)c1cccc(Cl)c1 (centres unmarked) [Bupropion]	84%	19 to 21.3	PLASMA PROTEIN BINDING [1, 5]: 84%; HALF-LIFE [2, 5]: 19 to 21.3 h
O=C1CN=C(c2ccccc2Cl)c2cc([N+](=O)[O-])ccc2N1 [Clonazepam (Klonopin), Clonazepam]	85%	–	HALF-LIFE ([2]; in vivo): 30 to 40 h
Cc1c(OCC(F)(F)F)ccnc1C[S+]([O-])c1nc2ccccc2[nH]1 (centres unmarked) [Llansoprazole]	–	–	PLASMA PROTEIN BINDING [1, 5]: 97-99% ^; HALF-LIFE [2, 5]: 0.9 to 1.5 h
CN1CCN(C(=O)O[C@H]2c3nccnc3C(=O)N2c2ccc(Cl)cn2)CC1 [Eszopiclone (Lunesta), Eszopiclone]	52-59% ^	–	–
CCN(CC)CCNC(=O)c1cc(Cl)c(N)cc1OC [Metoclopramide]	–	–	PLASMA PROTEIN BINDING [1, 6]: 30%; HALF-LIFE [2, 6]: 5 to 6 h
Fc1ccc([C@@H]2CCNC[C@H]2COc2ccc3c(c2)OCO3)cc1 [Paroxetine]	–	–	PLASMA PROTEIN BINDING [1, 6]: 93-95% ^; HALF-LIFE [2, 6]: 15 to 21 h
NC(=O)C[S+]([O-])C(c1ccccc1)c1ccccc1 (centres unmarked) [Modafinil (Provigil), Modafinil]	60%	7.5 to 15	–
Cc1ccc(-c2nc3ccc(C)cn3c2CC(=O)N(C)C)cc1 [Zolpidem (Ambien), Zolpidem]	–	–	HALF-LIFE ([2]; in vivo): 2.5 to 2.8 h
CC(C)c1nc(CN(C)C(=O)N[C@H](C(=O)N[C@@H](Cc2ccccc2)C[C@H](O)[C@H](Cc2ccccc2)NC(=O)OCc2cncs2)C(C)C)cs1 [Ritonavir (Norvir), Ritonavir]	–	3 to 5	–
CC[C@]1(O)C[C@H]2CN(CCc3c([nH]c4ccccc34)[C@@](C(=O)OC)(c3cc4c(cc3OC)N(C=O)[C@H]3[C@@](O)(C(=O)OC)[C@H](OC(C)=O)[C@]5(CC)C=CCN6CC[C@]43[C@@H]65)C2)C1 [Vincristine (Oncovin), Vincristine]	–	85	–
CCCc1nn(C)c2c(=O)[nH]c(-c3cc(S(=O)(=O)N4CCN(C)CC4)ccc3OCC)nc12 [Sildenafil]	96%	–	PLASMA PROTEIN BINDING [1, 3]: 96%; HALF-LIFE [2, 3]: 4 h
CN(C)CCC(c1ccc(Cl)cc1)c1ccccn1 (centres unmarked) [Chlorphenamine]	–	–	PLASMA PROTEIN BINDING [1, 6]: 72%
